Data from patent publication US20120245229A1, “METHOD FOR TREATING NEUROPATHIC PAIN” (priority 2009, published 2012).

Legend:
[1] = tested on: glutamate NMDA receptors (NMDARs); test: NMDA-induced currents in dorsal horn (lamina II) neurons of spinal cord slices; type: cell-based, mice; details: NMDA 50 μM; TNF-α 10 ng/ml; PD98059 1 μM, U0126 1 μM, capsazepine 10 μM
Procedure: Spinal cord slice preparation. As previously reported^39, a portion of the lumbar spinal cord (L4-L5) was removed from young mice (3-4 week old) under urethane anesthesia (1.5-2.0 g/kg, i.p.) and transverse spinal cord slices were cut (600 μm) on a vibrating microslicer. The slices were perfused with Kreb's solution (8 ml/min) for >2 h prior to experiments. Some slices were stimulated with TNF-α (10 ng/ml, 5 min), the slices were fixed with 4% paraformaldehyde for 1 h, and processed pERK immunohistochemistry using thin sections (15 μm)^13.
Patch clamp recordings in spinal slices. Whole cell patch-clamp recordings were performed in lamina II neurons in voltage clamp mode^39. After establishing the whole-cell configuration, neurons were held at the holding potentials of −70 mV for recording spontaneous excitatory postsynaptic current (sEPSC). NMDA-induced currents were recorded by bath application of NMDA (50 μM, Sigma) at the holding potential of −50 mV. Membrane currents were amplified with an Axopatch 200A amplifier (Axon Instruments) in voltage-clamp mode. pCLAMP 6 was used and Mini Analysis (Synaptosoft Inc.) software to store and analyze the data. Those cells showing >5% changes from the baseline levels were reagrded as responding ones^24.
Resolvins were also used for intraplantar injection. RvD1 or RvE1 was injected into the plantar surface of a hindapaw [20 ng, 20 μl , in 1% ethanol (Supplementary FIG. 5a, 5b) or in 10% ethanol (FIG. 2e, Supplementary FIG. 1d)]. DRG cultures were incubated with RvE1 (10 ng/ml, 0.1% ethanol in culture medium) and perfused spinal cord slices with RvE1 (1 ng/ml, in 0.01% ethanol and Kreb's solution).
Perfusion of spinal cord slices: Spinal cord slices were incubated with chemerin (100 ng/ml, in Kreb's solution), TNF-α (10 ng/ml, in Kreb's solution), capsaicin (100 nM, in 0.01% DMSO and Kreb's solution), TRPV1 antagonist capsazepine (Sigma, 10 μM, in 0.01% DMSO and Kreb's solution), pertussix toxin (0.5 μg/ml, in Kreb's solution), and MEK inhibitor PD98059 and U0126 (CalBiochem, 1 μM, in 0.01% DMSO and Kreb's solution). For pertussix toxin treatment, spinal cord slices were incubated with the toxin for 3 h before stimulation.

[2] = tested on: complete Freund's adjuvant (CFA)-evoked heat hyperalgesia; test: CFA-evoked heat hyperalgesia (paw withdrawal latency, Hargreaves); type: in vivo, mice; details: for reduction of heat hyperalgesia: 10 ng i.t., post-CFA day 3, 1 h after injection
Procedure: Animals and pain models. Adult CD1 mice (male, 25-32 g) were used for most experiments. Knockout mice were used lacking TNFR1/II (Tnfrsf1a/1b^−/−) and TRPV1 (Trpv1^−/−) and C57BL/6 wild-type control mice, all from Jackson, for some experiments. All animal procedures performed in this study were approved by the Harvard Medical Area Standing Committee on Animals. 20 μl of diluted formalin (5%), carrageenan (CRG, 1%), or complete Freund's adjuvant (CFA) were injected into the plantar surface of a hindpaw to produce acute, persistent, or chronic inflammatory pain, respectively. Postoperative pain was also produced through hindpaw incision^36 and neuropathic pain by ligation of the spinal nerve^37.
Reagents and administration. RvE1 and RvD1 were suspended in 1% or 10% ethanol as vehicle for investigating acute (<1 h) and persistent (1-6 h) effects of resolvins on inflammatory pain. The reagents (10 μl) were delivered to the cerebral spinal fluid via intrathecal injection made by a spinal cord puncture between the L5 and L6 level with a 30G needle^38.
(§1) Behavioral analysis. Mice were habituated in the testing environment for two days and performed behavioral testing in a blinded manner. Formalin-evoked spontaneous inflammatory pain was assessed by measuring duration (seconds) animals spent on licking/flinching the affected paws every 5 min for 45 min. Capsaicin-induced spontaneous pain was aslo assessed for 10 min. For testing mechanical sensitivity, mice were put in boxes on an elevated metal mesh floor and stimulated hindpaw with a series of von Frey hairs with logarithmically incrementing stiffness (0.02-2.56 grams, Stoelting), presented perpendicular to the plantar surface. It was determined the 50% paw withdrawal threshold using Dixon's up-down method^40. For testing heat sensitivity, mice were placed in plastic boxes and tested heat sensitivity using Hargreaves radiant heat apparatus (IITC Life Science Inc.). The basal paw withdrawal latency was adjusted to 9-12 seconds and set a cut-off of 20 seconds to prevent tissue damage. The percent maximal possible antinociceptive effect (% M.P.E) was calculated using the equation % M.P.E.=[(PL−BL2)/(BL1−BL2)]×100. BL1, baseline latency before inflammation; BL2, baseline latency after inflammation but before drug injection; PL, latency post drug injection.
Intrathecal injection. To avoid systemic effects of drugs and target spinal mechanisms, drugs were delivered into cerebral spinal fluid (CSF) space around lumbosacral spinal cord via intrathecal (i.t.) administration. Spinal cord puncture was made with a 30G needle between the L5 and L6 level to deliver the reagents (10 μl) to the cerebral spinal fluid (Hylden and Wilcox, 1980)^5. […] In addition to spinal cord cells, intrathecal drug administration also affects DRG cells^6,7.
The anti-hyperalgesic efficacy of RvE1 prepared in 1% and 10% ethanol was compared on post-CFA day 3.

[3] = tested on: capsaicin-induced spontaneous pain; test: Capsaicin-induced acute spontaneous pain; type: in vivo, mice
Procedure: as §1, with “The percent maximal possible antinociceptive effect (% M.P.E) was calculated using the equation % M.P.E.=[(PL−BL2)/(BL1−BL2)]×100.” left out, “injection. Intrathecal injection: […] To examine whether pretreatment of RvE1 attenuates capsaicin-induced acute spontaneous pain, RvE1 and capsaicin were mixed and injected at the same time (FIG. 3f). […]” for “injection.”

## CC[C@@H](O)/C=C/C=C\C[C@@H](O)/C=C/C=C/C=C\[C@@H](O)CCCC(=O)O [RvE1, 5S,12R,18R-trihydroxyeicosapentaenoic acid]
[1]
  TNF-α-induced potentiation of NMDA currents (NMDAR activation): blocked this potentiation
[2]; vehicle 1% ethanol
  reduction of heat hyperalgesia: 54.7%
[2]; vehicle 10% ethanol
  reduction of heat hyperalgesia: 55.7%
[2]; 10 ng intrathecal, post-CFA day 3, 15 min after administration
  reduction in hyperalgesia: ~75%
[2]; intrathecal, CFA heat hyperalgesia, 1-6 h
  potency of 10 ng RvE1 compared with 10 μg NS-398: more potent than 10 μg COX-2 inhibitor NS-398
[3]; intrathecal RvE1 mixed with capsaicin 0.5 μg
  intrathecal capsaicin-evoked acute spontaneous pain: prevented
[3]; peripheral (intraplantar) RvE1 10 min before capsaicin 5 μg
  intraplantar capsaicin-induced acute pain: reduced
